Source: patent US20250281497A1, “FUSED AMINO PYRIMIDINE COMPOUNDS FOR TREATMENT OF SEIZURE DISORDERS” (Ovid Therapeutics Inc., priority 2024, published 2025)
Like-named read-outs stand apart in the source and are kept apart here.

Tests used:
hippocampal neurons = assay: Whole cell patch clamp with imposed Cl− load, hippocampal neurons; assay type: cell-based, Sprague Dawley; details: 1 h incubation, 32 mM Cl− load; controls −47.4±2.3
Procedure: Neuronal Cultures. Hippocampal neurons were prepared from Sprague Dawley E18 embryos and plated at 450,000 per dish and maintained at 37° C. in a humidified 5% CO2 incubator for 10-25 days before experimentation (Lee et al., Nat. Neurosci. 14, 736-743 (2011)).
Neuronal Patch clamp assays. Neuronal cell culture recordings were performed in bath saline at 34° C. For gramicidin perforated-patch experiments, pipettes contained (in mM): 140 KCl and 10 HEPES, pH 7.4 KOH. For whole-cell experiments, pipettes contained (in mM): 115 K-meth-SO^4, 30 KCl, 2 Mg-ATP, 4 Na-ATP, 0.4 Na-GTP, and 10 HEPES, pH 7.4 KOH. Bath saline contained the following (in mM): 140 NaCl, 2.5 KCl, 2.5 CaCl2, 2.5 MgCl2, 10 HEPES, and 11 glucose, pH 7.4 NaOH (Kontou et at, 2021, supra). All compound solutions were applied to cells using a three-barreled 700 μm pipe positioned just above the cell (Warner Instruments). […] All voltages from whole-cell experiments were corrected offline using a calculated liquid junction potential value (13.6 mV) in Clampex (Molecular Devices). For gramicidin perforated-patch experiments, intracellular Cl^− values were back-calculated using measured EGABA values and the Nernst equation: […]
5 min after break-in, an initial EGABA value was determined and the effects of a subsequent 5 min incubation with VU0463271 was assessed.

[1] = PK studies, brain and plasma levels by LC-MS/MS; assay type: in vivo, mice; details: for concentration at 30 min: 25 mg/kg IV bolus, within 30 minutes
Procedure: PK studies. […] Plasma and brain samples were rapidly frozen on dry ice.
Drug accumulation in the brain was examined following SC injection (FIG. 4C; 50 mg/kg).

KCC4 = molecular target: T1, KCC4 (Homo sapiens, UniProt Q9Y666); assay: Tl+ assay, HEK-293 cells expressing KCC4; assay type: cell-based; details: read-out: concentration at which effects on KCC4 were seen (EC50 chart FIG. 1G)
T1 construct: expressed in transfected cells; host or cells: HEK-293
T1 sequence (Q9Y666 1-1083): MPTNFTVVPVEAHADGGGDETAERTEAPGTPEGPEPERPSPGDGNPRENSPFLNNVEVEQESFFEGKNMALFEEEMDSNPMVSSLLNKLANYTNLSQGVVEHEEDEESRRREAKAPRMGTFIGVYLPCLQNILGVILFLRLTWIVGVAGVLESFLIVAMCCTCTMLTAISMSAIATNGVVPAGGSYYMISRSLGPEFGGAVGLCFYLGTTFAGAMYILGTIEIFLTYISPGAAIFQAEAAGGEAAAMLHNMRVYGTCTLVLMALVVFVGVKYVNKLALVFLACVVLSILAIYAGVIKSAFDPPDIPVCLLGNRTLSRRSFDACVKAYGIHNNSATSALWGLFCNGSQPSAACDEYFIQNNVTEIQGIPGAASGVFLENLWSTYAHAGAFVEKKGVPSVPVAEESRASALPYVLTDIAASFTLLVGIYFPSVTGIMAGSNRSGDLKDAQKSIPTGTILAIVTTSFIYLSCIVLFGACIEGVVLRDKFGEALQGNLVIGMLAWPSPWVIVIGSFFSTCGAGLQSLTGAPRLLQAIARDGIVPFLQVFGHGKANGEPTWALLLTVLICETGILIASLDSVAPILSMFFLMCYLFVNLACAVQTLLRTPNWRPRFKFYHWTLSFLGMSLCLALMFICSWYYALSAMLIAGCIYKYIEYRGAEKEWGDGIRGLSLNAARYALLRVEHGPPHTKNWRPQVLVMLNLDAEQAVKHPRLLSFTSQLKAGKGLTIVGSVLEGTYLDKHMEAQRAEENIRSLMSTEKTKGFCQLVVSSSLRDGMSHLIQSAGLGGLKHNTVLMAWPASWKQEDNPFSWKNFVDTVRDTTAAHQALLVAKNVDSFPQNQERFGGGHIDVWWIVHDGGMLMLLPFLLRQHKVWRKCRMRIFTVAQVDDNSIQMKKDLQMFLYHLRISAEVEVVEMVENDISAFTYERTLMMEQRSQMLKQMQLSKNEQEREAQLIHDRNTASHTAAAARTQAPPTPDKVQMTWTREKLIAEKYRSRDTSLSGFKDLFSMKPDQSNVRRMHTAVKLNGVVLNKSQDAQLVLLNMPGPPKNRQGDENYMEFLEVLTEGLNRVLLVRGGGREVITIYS
Procedure: FLIPR TI Flux assay. HEK-293 cells were washed with HBSS, and then incubated with loading buffer containing TI sensitive fluorescent dye (https://www.moleculardevices.com), 20 μM bumetanide 20 μM ouabain and 2.5 mM probenecid for 1 h at room temperature (RT) under control conditions or with drugs in the dark using a FlexStation 3 microplate reader (Molecular Devices) and imaged […] for 30 min. Stimulus buffer was added containing 5 mM K^+/0.5 mM Tl^+ and cells were imaged every 1.5 over a 190 second time course The initial rate Tl^+ uptake (Relative Fluorescence Units (RFU) per second) was determined following addition of the stimulus buffer as outlined previously (Conway et at, 2017, supra) (Lee et at, 2022, supra).
Several studies have shown that the activity and plasma membrane accumulation of KCC2 is potentiated via phosphorylation of S940, a process mediated by the activity of protein kinase C and protein phosphatase 1 (Lee et al., 2011, supra; Lee et al., J Biol Chem 282, 29777-29784 (2007); Moore et al., Proc. Natl. Acad. Sci. U.S.A. 115, 10166-10171 (2018); Moore et al., Trends Neurosci. 40, 555-571 (2017); Silayeva et al., Proc. Natl. Acad. Sci. U.S.A. 112, 3523-3528 (2015)). […] Compared to KCC2, effects on KCC3, KCC4, and NKCC1 were only seen at concentrations more than 35-fold that of KCC2 (>100 μM) (FIG. 1G).

With `C[C@@H]1CN(c2nc3c(c(Nc4ccc(C5CCCCC5)cc4)n2)COC3)CCO1` [Compound A, (R)—N-(4-cyclohexylphenyl)-2-(2-methylmorpholino)-5,7-dihydrofuro[3,4-d]pyrimidin-4-amine] the “basal EGABA” value (hippocampal neurons) was −59.3±2.1 mV, the “time of maximal concentration in brain” value ([1]; 50 mg/kg SC) was 4 h and the “brain level 8h after SC injection” value ([1]; 50 mg/kg SC, 8h) was “a level that was maintained 8h later”. For the same compound, the “maximal concentration in brain” value ([1]; 50 mg/kg SC, at 4 hr) was > 600 nM, the concentration at 2 hr ([1]; mouse, brain, intraperitoneal, 50 mg/kg IP, 2 hr) was 2.67 ± 0.21 µM and the concentration at 4 hr ([1]; mouse, brain, intraperitoneal, 50 mg/kg IP, 4 hr) was 4.1 ± 0.13 µM. For the same compound, the concentration at 30 min ([1]; mouse, brain, read-out: concentration in brain) was 7.6 ± 4.4 µM, the concentration at 30 min ([1]; mouse, plasma, read-out: concentration in plasma) was 41.5 ± 11.5 µM and the EC50 (KCC4) was > 100 µM.
